Laboratory results from patent US20240191187A1, “MEDIA AND METHODS FOR GROWING MAMMARY ORGANOIDS” (STEMCELL TECHNOLOGIES CANADA INC., priority 2021, published 2024).
Entries after “also recorded” stand apart in the source; their conditions may differ.

Assays:
[1] = system: human mammary epithelial cells; assay: Human mammary organoid cell lineage balance by flow cytometry; settings: for cell lineage balance, inhibitors of TGFβ signaling: ~10 μM SB431542, ~200-500 nM A77-01, ~5-25 RepSox; for cell lineage balance, ERBB receptor family ligands: ~10-50 ng/mL AREG, ~10-50 ng/mL EGF, ~50-100 ng/mL NRG1; for cell lineage balance across multiple experiments, ERBB ligands: normalized to control lacking ERBB modulators, mean of 2 experiments
Protocol: (§4) Cryopreserved pellet A and pellet B were dissociated into a single cell suspension by treatment with 0.25% Trypsin-EDTA for 5 minutes at 37° C. (with intermittent trituration) and then centrifuged at (300 g for 5 minutes). The supernatant was discarded and the pellet was resuspended in a 100 μg/ml DNase solution for 1 minute at room temperature. The resulting cells were passed through a 37 μm strainer to obtain the single cell suspension.
Each well received between 0.5-1 mL of any one of the various culture media described herein.
The plated single cell suspension of mammary epithelial cells formed into organoids that were passaged approximately every 7-days, with 2-3 full medium changes during such 7-day period. To passage the organoids, the Matrigel domes were broken apart by pipetting in pre-warmed 0.25% Trypsin-EDTA, incubating at 37° C. for ˜ 5-15 minutes and pipetting again. The trypsinization reaction was inactivated by washing in an equal volume of Hanks Balanced Salt Solution supplemented with 2% FBS. Depending on the density and size of organoids a 1:2-1:5 split was performed, with the cells seeded as domes, as described above. Alternatively, cells would be strained through a 37 μm strainer to obtain the single cell suspension and seeded in Matrigel domes as described above.
Organoids were formed in media comprising either BMP signaling activator, ˜50 ng/mL BMP2 or ˜50 ng/mL BMP4, and in media comprising either BMP signaling inhibitor, ˜25-200 ng/mL NOGGIN or ˜10-100 nM LDN193189. Just prior to the first passage, the formed organoids were dissociated and the cell lineage balance was analyzed by flow cytometry.
Organoids were formed in media comprising either no ligand of an ERBB receptor family member, or comprising ˜10-50 ng/mL amphiregulin (AREG), ˜10-50 ng/mL epidermal growth factor (EGF), or ˜50-100 ng/mL heregulin/neuregulin 1 (NRG1). Just prior to the first passage, the formed organoids were dissociated and the cell lineage balance was analyzed by flow cytometry.
Just prior to the first passage, the formed organoids were dissociated and the cell lineage balance was analyzed by flow cytometry.

[2] = system: human mammary epithelial cells; assay: Human mammary organoids stained for K8/K14, confocal microscopy; assay type: cell-based; settings: Day 17 organoids; 50 ng/mL NRG3, 100 ng/mL AMH, 50 ng/mL GM-CSF
Protocol: (§1) Organoids were recovered from Matrigel by incubating in Corning Cell Recovery Solution for 1 hour with rocking on ice. Organoids were then fixed in 4% paraformaldehyde (PFA) at room temperature for 1 hour and stored in PBS at 4° C. After PFA fixation, antigen retrieval was performed by boiling the organoids in sodium citrate buffer for 20 minutes at 96° C. Organoids were permeabilized in a 0.5% Triton-X-100 solution in PBS overnight at room temperature. Samples were blocked by incubating overnight in a solution of 5% goat serum.
Following fixation and permeabilization, the organoids were incubated sequentially in primary antibody and secondary antibody solutions (as summarized in the table below) overnight at room temperature. Samples were counterstained in a 2 μg/ml DAPI solution for 20 minutes and dehydrated through stepwise incubations in solutions with increasing methanol concentrations (50%, 80%, then 100% methanol). Organoids were embedded in a solution of 2:1 Benzyl Benzoate-Benzyl alcohol (BABB), transferred to Ibidi glass bottom chamber slides and imaged using a Leica SP8 confocal laser scanning microscope. […]
The effects of modulating signaling through BMP were analyzed across multiple experiments in terms of total cell count among formed organoids (FIG. 9A) and the lineage balance of the cells among formed organoids (FIG. 9B). […]

[3] = system: estrogen receptor localization in mouse mammary organoids; assay: ER localization in mouse mammary organoids after transient TGFβ signaling inhibitor exposure (confocal); assay type: cell-based; settings: transient exposure after organoids have formed
Protocol: (§2) In panel A) (human) and in panel B) (mouse) organoids were formed in respective organoid media of this disclosure, and were then transiently exposed to different inhibitors of TGFβ signaling. Organoids were imaged by confocal microscopy after staining for K8, K14, ER and the nuclear stain DAPI.
as §1
(§3) Following fixation and permeabilization, the organoids were incubated sequentially in primary antibody and secondary antibody solutions (as summarized in the table below) overnight at room temperature. Samples were counterstained in a 2 μg/ml DAPI solution for 20 minutes and dehydrated through stepwise incubations in solutions with increasing methanol concentrations (50%, 80%, then 100% methanol). […]

[4] = system: estrogen receptor localization in human mammary organoids; assay: ER localization in human mammary organoids after transient TGFβ signaling inhibitor exposure (confocal); assay type: cell-based; settings: transient exposure after organoids have formed
Protocol: as §2, §1, §3

[5] = system: human mammary epithelial cells; assay: Total cell count among formed human mammary organoids; assay type: cell-based; settings: vs control with no modulation of ERBB signaling
Protocol: as §4
Each well received between 0.5-1 mL of any one of the various culture media described herein. […]
The effects of modulating signaling through an ERBB receptor family member were analyzed across multiple experiments in terms of total cell count among formed organoids (FIG. 13A) and the lineage balance of the cells among formed organoids (FIG. 13B).

[6] = system: human mammary epithelial cells; assay: Human mammary organoid formation, brightfield microscopy; assay type: cell-based; settings: media comprising NOGGIN or LDN193189 alone vs both; successive passages
Protocol: Fragments of human mammary epithelial cells were isolated from tissue samples obtained from academic collaborators, as follows. Resected tissue samples were minced in a petri dish using a scalpel to cut in a cross-hatched pattern. The minced tissue samples were placed in a dissociation flask in standard culture medium supplemented with BSA, insulin, collagenase and hyaluronidase. The flask was gently shaken overnight on an orbital shaker placed in a 37° C. tissue incubator. The following morning the floating layer of fat was removed by pipette, and the remaining liquid was transferred to a tube and briefly centrifuged at low rpm (˜80 g for 30 seconds). The pellet (A pellet) was set aside and the supernatant was further centrifuged for an incrementally longer period of time and at an incrementally higher rpm (˜200 g for 4 minutes). The pellet (B pellet) was set aside and the supernatant was further centrifuged for a still incrementally longer period of time and at an incrementally higher rpm (˜450 g for 5 minutes).
Cryopreserved pellet A and pellet B were dissociated into a single cell suspension by treatment with 0.25% Trypsin-EDTA for 5 minutes at 37° C. (with intermittent trituration) and then centrifuged at (300 g for 5 minutes). The supernatant was discarded and the pellet was resuspended in a 100 μg/ml DNase solution for 1 minute at room temperature. […]

## Cc1cccc(-c2[nH]ncc2-c2ccnc3ccccc23)n1 [A77-01, reference compound]
[1]
  cell lineage balance, inhibitors of TGFβ signaling: reduce the proportion of stromal cells while either maintaining or improving the proportions of luminal cells

## TGFβ1: ligand of a TGFβ receptor
[1]; ~50 ng/mL, just prior to first passage
  cell lineage balance, TGFβ receptor ligands: an overall negative impact on the percentage of luminal and basal cells, while greatly increasing the proportion of stromal cells

## Granulocyte-macrophage Colony Stimulating Factor [GM-CSF]
[2]
  lineage restriction of organoids formed (K8/K14 staining): bias the culture of mammary epithelial cells to form basal-restricted organoids; also recorded: Basal-restricted organoids were formed

## heregulin/neuregulin 1 [NRG1]
[1]; just prior to first passage
  cell lineage balance, ERBB receptor family ligands: a minor or no effect on cell lineage balance
[1]
  cell lineage balance across multiple experiments, ERBB ligands: a higher percentage of luminal cells and a reduction in the percentage of basal cells

## Cc1cccc(-c2[nH]ncc2-c2ccc3ncccc3n2)n1 [RepSox]
[1]
  cell lineage balance, inhibitors of TGFβ signaling: reduce the proportion of stromal cells while either maintaining or improving the proportions of luminal cells
[3]
  localization of estrogen receptor, mouse organoids: promoted the localization of estrogen receptor within nuclei
[4]
  localization of estrogen receptor, human organoids: promoted the localization of estrogen receptor within nuclei

## epidermal growth factor [EGF, ligand of ERBB1]
[1]; just prior to first passage
  cell lineage balance, ERBB receptor family ligands: significantly reduce the number of luminal cells while significantly increasing the number of basal cells
[1]
  cell lineage balance across multiple experiments, ERBB ligands: the greatest reduction in luminal cells and the greatest increase in basal cells
[5]
  total cell count among formed organoids, ERBB modulators: highest mitogenic activity

## Neuregulin 3 [NRG3]
[2]
  lineage restriction of organoids formed (K8/K14 staining): bias the culture of mammary epithelial cells to form luminal-restricted organoids; also recorded: Luminal-restricted organoids were formed

## NC(=O)c1ccc(-c2nc(-c3ccc4c(c3)OCO4)c(-c3ccccn3)[nH]2)cc1 [SB431542]
[1]
  cell lineage balance, inhibitors of TGFβ signaling: reduce the proportion of stromal cells while either maintaining or improving the proportions of luminal cells
[3]
  localization of estrogen receptor, mouse organoids: promoted the localization of estrogen receptor within nuclei
[4]
  localization of estrogen receptor, human organoids: promoted the localization of estrogen receptor within nuclei

## C#Cc1cccc(Nc2ncnc3cc(OCCOC)c(OCCOC)cc23)c1 [Erlotinib, reference compound]
[1]; ~100 nM Gefitinib and ~100 nM Erlotinib given together, two donor samples
  cell lineage balance, EGF receptor inhibition: negligible or no effect on cell lineage balance

## c1ccc2c(-c3cnn4cc(-c5ccc(N6CCNCC6)cc5)cnc34)ccnc2c1 [LDN193189, reference compound]
[6]
  formation of luminal organoids, single vs dual BMP signaling inhibitor: appeared sufficient to bias formation of luminal organoids
[1]; just prior to first passage, ~50 ng/mL BMP2 or BMP4, ~25-200 ng/mL NOGGIN or ~10-100 nM LDN193189
  cell lineage balance, BMP signaling modulators: decreased the number of basal cells while increasing the number of luminal cells
